Laboratory results reported in patent US20050244413A1, “Compositions and methods for treating cancer using cytotoxic CD44 antibody immunoconjugates and chemotherapeutic agents” (priority 2002, published 2005).

How the values were obtained:
Type in all cases: in vivo, mouse
FaDuDD tumors = assay: BIWI 1 combination with cisplatin in nude mice xenografted with FaDuDD tumors
Procedure: The antibody solution was injected into the tail vein with an injection volume of 200 μl for a 25 g mouse. In the control groups without BIWI 1 treatment animals were injected i.v. with PBS. […] The solution was injected into the tail vein with an injection volume of 200 μl for a 25 g mouse. […] The solution was injected into the tail vein with an injection volume of 200 μl for a 25 g mouse.
Tumor sizes and body weights were recorded 2-3 times per week. Tumor sizes were measured with a calliper (length and width) and the volume was calculated according to the following formula: volume (length)×(width)^2×([…]). The tolerability of the treatment was monitored by measuring mouse weight during the whole observation period. […] For calculation of the mean tumor volumes per group, the last values of tumor size for individual animals were carried forward in case that these animals had to be sacrificed due to large tumor burden before the whole group was terminated. In addition to the absolute tumor volume in mm^3, the relative tumor volumes (RTV) were calculated as follows:
RTV=(tumor volume at day x)/(tumor volume at start of treatment)×100 For the evaluation of treatment efficacy the following parameters were calculated: • T/C (%)=(mean RTV of treated group)/(mean RTV of control group)×100 • T4T (tumor quadrupling time)=time until the mean RTV reaches 400% • GDF4 (growth delay factor)=T4T treated/T4T control.
In addition, for some experiments, the mean time for tumors to reach 8 times (T8T) their initial sizes were also calculated. The growth delay factor (GDF8) was then calculated accordingly. Percentages of mean relative tumor volumes of treated versus control groups (T/C) were calculated on the days indicated. For statistical evaluation of combination therapies exact Wilcoxon tests were used. Tolerability was assessed by monitoring body weight changes.
A different set of experiments was done with cisplatin. In a pilot experiment, a dose of 4 mg/kg cisplatin administered i.v. four times in weekly intervals was determined to be non-curative in this model, and also represents the maximum tolerated dose in the mouse strain used. This dose of cisplatin was combined with BIWI 1 at the non-curative doses of 200 μg/kg DM1 and 300 Ag/kg DM1 already used in the previous experiment. […] In the latter combination group 2/8 complete tumor regressions could be observed. […] Treatment was well tolerated in all groups.

FaDu tumors [1] = assay: BIWI 1 combination therapy with paclitaxel in the FaDu xenograft model
Procedure: (§1) In vivo anti-tumor efficacy of BIWI 1 was tested in three nude mouse xenograft models applying antigen-positive human tumors: A431 (ATCC # CRL 1555; epidermoid carcinoma of the vulva), FaDu (ATCC # HTB 43; squamous cell carcinoma of the pharynx), and MDA-MB 453 (ATCC # HTB-131; breast carcinoma). The cells were received from ATCC and cultured in RPMI1640 medium containing 10% fetal calf serum and supplements. 1×10^6 tumors cells were transplanted subcutaneously into the right flank of 6 week old female NMRI-nu/nu mice. Tumor growth was monitored by measuring tumor size. A tumor response was rated as complete response when the tumor completely disappeared at any time after start of treatment. The response was rated as partial response when the tumor volume decreased after treatment but thereafter started regrowing. The tolerability of the treatment was monitored by measuring mouse weight during the observation period.
Mice were randomised into the following treatment groups (treatment/initial mean tumor volume/tumor volume range/number of mice): • Group 1: Control (PBS)/197 mm^3/65-402 mm^3/8 mice • Group 2: Paclitaxel/182 mm^3 /65%-302 mm^3/8 mice • Group 3: BIWI 1/208 mm^3 /65-382 mm^3/8 mice • Group 4: BIWI 1+paclitaxel/159 mm^3 /79-335 mm^3 /7 mice
Treatment consisted either of five i.v. injections of BIWI 1 (7 mg/kg corresponding to 100 μg/kg DM1) at day 1, 3, 5, 8, 10, or of six i.p. injections of paclitaxel (10 mg/kg) at day 2, 4, 6, 9, 11, 13, respectively, or a combination thereof. Control animals were treated with PBS.
One tumor completely dissappeared during treatment and the animal remained tumor free until the end of the observation period.

FaDu tumors [2] = assay: BIWI 1 monotherapy in FaDu xenografted nude mice; settings: five consecutive days
Procedure: as §1
Mice were randomised into the following treatment groups (treatment/initial mean tumor volume/tumor volume range/number of mice): • Group 1: Control (PBS)/142±82 mm^3/34-268 mm^3 /8 mice. • Group 2: BIWA 4 (21 mg/kg/d)/134±86 mm^3/42-268 mm^3/6 mice. • Group 3: BIWI 1 (2.1 mg/kg/d) 149±96 mm^3/50-268 mm^3/6 mice. • Group 4: BIWI 1 (7 mg/kg/d)/132±97 mm^3 42-268 mm^3/6 mice. • Group 5: BIWI 1 (21 mg/kg/d)/129±74 mm^3/50-231 mm^3/6 mice.
Groups of 6 mice were treated with 2.1 mg/kg/d BIWI 1, 7 mg/kg/d BIWI 1, 21 mg/kg/d BIWI 1, and 21 mg/kg/d control antibody, respectively. Treatment consisted of i.v. injections of BIWI 1 given on five consecutive days, starting at day 1. […] The remaining 2 tumors grew similar to untreated control tumors.

[3] = BIWI 1 200 μg/kg DM1 i.v. q7dx4
[4] = BIWI 1 300 μg/kg DM1 i.v. q7dx4
[5] = BIWI 1 7 mg/kg i.v. x5, paclitaxel 10 mg/kg i.p. x6, or both

Substance: BIWI 1
- GDF4 (FaDuDD tumors; [3]): 2.2
- T4T (FaDuDD tumors; [3]): 23.2 days
- T/C (d 19) (FaDuDD tumors; [3]): 59%
- GDF4 (FaDuDD tumors; [4]): 2.3
- T4T (FaDuDD tumors; [4]): 24.8 days
- T/C (d 19) (FaDuDD tumors; [4]): 27%
- Initial Tumor Doubling Time (FaDu tumors [1]; BIWI 1 7 mg/kg i.v. day 1,3,5,8,10, paclitaxel 10 mg/kg i.p. day 2,4,6,9,11,13, or both): 7 days
- Complete Regression (FaDu tumors [1]; [5]): 0/8
- Growth Delay Factor (FaDu tumors [1]; [5]): 0.75
- partial response (FaDu tumors [1]; BIWI 1 monotherapy 7 mg/kg i.v. x5): 3/8
- tumor volume doubling time (FaDu tumors [2]; 2.1 mg/kg/d BIWI 1 i.v.): approximately 5 days
- complete responses (FaDu tumors [2]; 7 mg/kg/d BIWI 1 i.v.): 1/6
- partial responses (FaDu tumors [2]; 7 mg/kg/d BIWI 1 i.v.): 3/6
- day on which tumors disappeared (FaDu tumors [2]; 21 mg/kg/d BIWI 1 i.v.): ~24 days
- tumor regrowth until end of observation period (day 107) (FaDu tumors [2]; 21 mg/kg/d BIWI 1 i.v.): No tumor regrowth
- tumor response (FaDu tumors [2]; 21 mg/kg/d BIWI 1 i.v.): all tumors responded completely
